Results published in patent publication US20210379033A1, “METHODS OF TREATING CANCER WITH ARYL HYDROCARBON RECEPTOR ANTAGONISTS” (Magenta Therapeutics Inc., priority 2018, published 2021).
pEC50: −log10 of the molar value. Read-outs that look alike come from different tables or passages of the source.

Key:
[1] = biological target: T1, aryl hydrocarbon receptor (Homo sapiens, UniProt P35869); assay: Aryl hydrocarbon receptor-driven luciferase reporter in transiently transfected HepG2 cells (Example 3); type: cell-based; settings: absence (FIG. 1) or presence (FIG. 2) of agonist VAF347 (80 nM), luciferase six hours after plating
T1 construct: HepG2 cells transiently transfected with the pGudLuc8.1 plasmid were thawed and 25,000 cells were plated per well; endogenous in cells; host or cells: HepG2
T1 sequence (P35869 11-848): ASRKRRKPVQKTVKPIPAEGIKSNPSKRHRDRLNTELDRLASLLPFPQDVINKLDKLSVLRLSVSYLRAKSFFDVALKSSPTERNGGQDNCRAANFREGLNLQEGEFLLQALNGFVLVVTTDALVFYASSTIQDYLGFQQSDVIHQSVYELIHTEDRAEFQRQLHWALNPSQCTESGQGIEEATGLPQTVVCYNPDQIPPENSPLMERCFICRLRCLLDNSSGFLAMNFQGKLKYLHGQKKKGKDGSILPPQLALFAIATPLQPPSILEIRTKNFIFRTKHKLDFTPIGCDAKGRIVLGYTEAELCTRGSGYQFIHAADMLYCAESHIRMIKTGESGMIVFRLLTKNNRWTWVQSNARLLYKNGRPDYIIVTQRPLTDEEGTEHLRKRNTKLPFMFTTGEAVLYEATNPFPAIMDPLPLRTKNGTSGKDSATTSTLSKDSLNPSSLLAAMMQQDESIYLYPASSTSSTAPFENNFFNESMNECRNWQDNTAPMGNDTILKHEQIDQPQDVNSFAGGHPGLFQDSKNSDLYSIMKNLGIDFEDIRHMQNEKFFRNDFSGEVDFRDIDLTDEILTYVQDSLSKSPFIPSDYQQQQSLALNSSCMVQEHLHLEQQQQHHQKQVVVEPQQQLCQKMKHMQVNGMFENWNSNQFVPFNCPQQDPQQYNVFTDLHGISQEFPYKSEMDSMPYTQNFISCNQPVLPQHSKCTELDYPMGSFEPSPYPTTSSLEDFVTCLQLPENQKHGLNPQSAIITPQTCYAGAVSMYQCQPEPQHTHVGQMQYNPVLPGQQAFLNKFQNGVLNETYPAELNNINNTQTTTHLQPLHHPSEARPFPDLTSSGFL
Protocol: Experimental details for this experiment are reported in Example 3, below.
To determine the ability of compounds (5) and (16) to inhibit the activity of the aryl hydrocarbon receptor and to induce the proliferation of hematopoietic stem cells, a series of HSC expansion experiments were conducted. In the first experiment, compounds (5) and (16) were assessed for their capacity to attenuate aryl hydrocarbon receptor signaling. To this end, HepG2 hepatocytes were transiently transfected with a luciferase reporter construct under the control of a promoter responsive to aryl hydrocarbon receptor signal transduction. The cells were plated at a density of 25,000 cells per well in a microtiter plate. The HepG2 cells were immediately treated with compound (5) or (16) in the absence (FIG. 1) or presence (FIG. 2) of the aryl hydrocarbon receptor agonist, VAF347 (80 nM). Luciferase activity was subsequently analyzed six hours after plating.

[2] = biological target: T2, aryl hydrocarbon receptor (AHR) (Homo sapiens, UniProt P35869); assay: AHR antagonist assay: luciferase reporter in HepG2 cells transiently transfected with pGudLuc8.1; type: cell-based; settings: HepG2 cells, 25,000 cells per well, luciferase activity 24 hours post-culture
T2 construct: HepG2 cells transiently transfected with the pGudLuc8.1 plasmid were thawed and 25,000 cells were plated per well; endogenous in cells; host or cells: HepG2
T2 sequence (P35869 11-848): T1 sequence (P35869 11-848)
Protocol: To determine the activity of a scale-up batch of Compound (24), individual enantiomers, and two derivatives Compound (27) and Compound (28) were evaluated for AHR antagonist activity. The compounds were compared to control AHR antagonist SR1, an additional control AHR antagonist, and stored sample of Compound (24)
Methods—HepG2 cells transiently transfected with the pGudLuc8.1 plasmid were thawed and 25,000 cells were plated per well and immediately treated the AHR agonist VAF347 (fixed at 40 nM) and/or the indicated AHR antagonists. Luciferase activity was measured 24 hours post-culture, corresponding to endogenous AHR antagonist activity (without VAF347, FIG. 8) or in the presence of VAF347 (FIG. 9). All synthesized compounds show equivalent AHR antagonist activity if not greater than SR1.

Row | pEC50 ([2]; AHR agonist VAF347 fixed at 40 nM, read-out: AHR Antagonist Activity in the Presence of VAF347 EC50) | pEC50 ([2]; without VAF347, read-out: Endogenous AHR Antagonist Activity EC50) | SMILES | suppression of aryl hydrocarbon receptor activity (luciferase) [1]
1 |  |  | CCC(C)c1cnc2c(NCCc3c[nH]c4ccccc34)cc(-c3cncc(F)c3)cn12 (stereo not shown) [Compound (5)] | capable of suppressing aryl hydrocarbon receptor activity even in the presence of the activator VAF347
2 |  |  | CCC(C)c1cnc2c(NCCc3c[nH]c4ccccc34)nc(-c3cncc(F)c3)cn12 (stereo not shown) [Compound (16)] | capable of suppressing aryl hydrocarbon receptor activity even in the presence of the activator VAF347
3 | 6.71 | 7.48 | CC(C)n1cnc2c(NCCc3ccc(O)cc3)nc(-c3csc4ccccc34)nc21 [SR1] | 
